Assay results as given in patent publication US7759542B2, “Glycine N-methyltransferase (GNMT) animal model and use thereof” (priority 2007, dated 2010).
Several values for one entry are separate records, joined by “and”; a condition that tells them apart may be missing. Identical values can stand only once. Entries after “also recorded” stand apart in the source; their conditions may differ. Like-named read-outs stand apart in the source and are kept apart here.

How the values were obtained:
HuH-7 cells = test: MTT cytotoxicity assay of AFB1 on HuH-7 cells; format: cell-based
Experimental: MTT assay was used to determine the cytotoxicity effect of AFB1. In brief, cells were seeded on 96 well plate. At the time of assay, culture medium was replaced by 100 μL fresh medium containing 10 μL of 5 mg/mL MTT stock solution for each well. After 4 hr of labeling cells with MTT, medium was removed then 100 μL DMSO was added to each well for 10 min at 37° C. Samples were mixed and read absorbance at 540 nm. For half lethal concentration (LC50) determination, seven thousand HuH-7 cells were seeded on 96 well plate for 18 hr. Cells were treated with different concentration of AFB1 and MTT assay was performed at series time points, triplicate for each set. The survival percentage is calculated by dividing the OD value of treatment group by solvent control group. For cytotoxicity assay, five thousand HuH-7 cells were infected with different amount of adenovirus or lentivirus carrying GNMT cDNA for 8 hr then refreshed medium for another 10 hr. After 72 hr of AFB1 treatment, MTT assay was performed to determine the survival percentage.
MTT assay was used to determine the percentage of survived cells. To optimize the condition of cytotoxicity assay, HuH-7 cells were treated with different concentrations of AFB1 for series time course. […] The cytotoxicity effect of treatment up to 16 μM AFB1 was obscure within 24 hr. […]

wild-type mice [1] = details: mouse, in vivo
Gnmt−/− mice = details: mouse, in vivo
wild-type mice [2] = details: mouse, in vivo; remark: listed apart in the source
GNMT-TG mice = details: mouse, in vivo
GNMT = format: cell-based

aflatoxin B1 [AFB1]
cytotoxicity effect (HuH-7 cells): obscure
HE staining of histological liver sections (wild-type mice [1]): no abnormalities
ALT (wild-type mice [1]; ip): 27.5 ± 0.71 U/L and 22.83 ± 3.92 U/L
AST (wild-type mice [1]; ip): 72.00 ± 58.92 U/L and 42.50 ± 8.22 U/L
Nodules <0.5 cm (wild-type mice [1]; ip): 0
Nodules >0.5 cm (wild-type mice [1]; ip): 0
HE staining of histological liver sections (Gnmt−/− mice): Dysplastic nodule, early HCC and fatty nodules; also recorded: Sclenosing HCC, Dysplastic nodule with focal fatty change
Nodules <0.5 cm (Gnmt−/− mice; ip): 3 and 6
Nodules >0.5 cm (Gnmt−/− mice; ip): 4 and 5
Pathological examination of liver (wild-type mice [2]): dysplasia and HCC
ALT (wild-type mice [2]; ip): 134 ± 112 and 109 ± 97
liver/body weight % (wild-type mice [2]; ip): 4.7 ± 0.3% and 4.0 ± 0.7%
Pathological examination of liver (GNMT-TG mice): normal pattern
ALT (GNMT-TG mice; ip): 61 ± 37 and 100 ± 73
liver/body weight % (GNMT-TG mice; ip): 4.5 ± 0.9% and 3.7 ± 0.4%
GNMT distribution following AFB1 treatment (GNMT): partly translocated to cell nuclei
